In a melting point compilation (Tetko et al.; mined from patent text by program, amines drawn as free bases though some values may be those of a salt):
Residues, ends and D or L forms follow the SMILES beside them. *: point of attachment. Cbz = O=C(OCc1ccccc1)*

Row | melting point | Compound
1 | 95 to 95.5 °C | CC1CCN(c2nn3ccnc3c3c2CCCC3)CC1
2 | 94 to 95 °C | CCCCCS(=O)(=O)NC(=O)CCc1ccc(OC(C)C)cc1Oc1ncc(C(F)(F)F)cc1Cl
3 | 70 to 71 °C | CCOC(=O)CCc1oc(-n2ccnc2C)nc1-c1ccc(Cl)cc1
4 | 110 to 111 °C | CC(=O)c1cc(Cl)c(OCCOc2ccc3ccccc3c2)c(Cl)c1
5 | 30 °C | CC(=O)CCc1ccc(-c2ccccc2F)cc1
6 | 129 to 131 °C | COC(=O)CC[C@H](NC(=O)c1c[nH]c(CCC2CNc3nc(NC(=O)C(C)(C)C)nc(O)c3C2)n1)C(=O)OC (stereo partly drawn)
7 | 260 °C | CCCn1cc(C2(c3cccc(Br)c3)N=C(N)N(C)C2=O)cc1C(=O)CC (stereo not drawn)
8 | 158 to 160 °C | CC(=O)NNC(=O)c1ccncc1
9 | > 300 °C | CCCN(CCC)C1Cc2cc3c(=O)[nH][nH]c(=O)c3cc2C1
10 | 116 to 117 °C | N#CC(Cl)Cc1ccccc1C(=O)O (stereo not drawn)
11 | 190 to 192 °C | O=[N+]([O-])C=C1SCCN1Cc1ccco1
12 | 208 to 210 °C | C#CCN(Cc1cc2c(=O)n(C)c(CN3CCC(O)CC3)nc2cc1Cl)c1ccc(C(=O)OC(C)(C)C)cc1
13 | 172 to 173 °C | Cc1cc(NC(=O)OC(C)(C)C)c(N)cc1C#Cc1ccccc1
14 | 173 to 176 °C | Cc1ccc(NC(=O)c2cc(Cl)ccc2NCC2CCN(C3CCSCC3)CC2)nc1
15 | 229 to 231 °C | CC12CCC(C(=O)Nc3ccccc3C(c3ccc(O)cc3)c3ccc(O)cc3)(OC1=O)C2(C)C (stereo not drawn)
16 | 212 °C | CC(C)C(=O)N[C@H]1CC[C@H](CCN2CCC(c3cccc4c3CCO4)CC2)CC1
17 | 141 °C | Fc1ccccc1-c1nc(Cl)nc2ccccc12
18 | 231 to 233 °C | CC1=C(c2ccnnc2)SCC(=O)N1
19 | 69 to 70 °C | CCN(CC)CCc1nc(Cn2cnc3c2c(=O)n(C)c(=O)n3C)no1
20 | 134 to 135 °C | Cc1cc(C)c([N+](=O)[O-])cc1N1CCCCC1=O
21 | 147 °C | Nc1c(Br)cc(S(=O)(=O)C(F)(F)F)cc1[N+](=O)[O-]
22 | 197 to 200 °C | Nc1cc(Oc2ccc3c(C(=O)Nc4cccc(C(F)(F)F)c4)nccc3c2)ncn1
23 | 93 to 94 °C | CC(C)(C)OC(=O)COc1coc(CN2CCCC2)cc1=O

Row | melting point | Compound
24 | 187 to 188 °C | CS(=O)(=O)c1ccc(/C(=C2\CCN(CCO)C2=O)c2ccc(Cl)cc2)cc1
25 | 68 to 71 °C | Fc1cc2c(cc1F)C(Cl)Cc1ccccc1S2 (stereo not drawn)
26 | 117 °C | CC(=O)OC(=CC(=O)O)CC(=O)Nc1cccc(F)c1
27 | 222 to 228 °C | COc1ccc(Nc2c([N+](=O)[O-])ccc(Cl)c2C(=O)O)cc1Cl
28 | 195 to 197 °C | O=C(Nc1cc2ccccc2oc1=O)c1ccccc1NCc1ccncc1
29 | 113 to 114 °C | COC(=O)c1cccc2c1Oc1ccccc1N2
30 | 171 to 173 °C | CCCCc1ccc(CNc2cc(C(=O)Nc3ccccc3)ccc2OC)cc1
31 | 151 to 152 °C | CCOC(=O)Cn1c(=O)n(Cc2ccc(Cl)cc2)c(=O)c2c(C)c(C)sc21
32 | 190 °C | COCC(Cl)C(=O)Nc1c(C(=O)CC(=O)Nc2nccs2)cccc1C(F)(F)F (stereo not drawn)
33 | 179 to 181 °C | CCOCc1nc2c(N)nc(C)c(C)c2n1CCNC(=O)N1CCOCC1
34 | 120 to 122 °C | CCN1CCCC1=NC(=O)Nc1c(C)cccc1C
35 | > 200 °C | Cc1nc(N2CCN(Cc3cc(F)cc(F)c3)C2=O)sc1C(N)=O
36 | 201 to 202 °C | CSc1nccc(NC(N)=NCC(F)(F)F)n1
37 | 187 to 190 °C | NS(=O)(=O)c1ccsc1
38 | 123 °C | CC12CCC(C1)C1(C)Oc3ccc(C(O)COc4ccc(C(=O)O)cc4)cc3C21C (stereo not drawn)
39 | 173 to 174 °C | COc1cc(CCCC2OC(=O)NC2=O)ccc1OCc1nc(-c2ccc3ccccc3c2)oc1C (stereo not drawn)
40 | 218 to 221 °C | COC(=O)NC1=NCC(c2cccc(OC)c2)CN1 (stereo not drawn)
41 | 164 °C | CC(C)(CCCc1cccnc1)NC(=O)/C=C/C=C(c1ccc(F)cc1)c1ccc(F)cc1
42 | 107 °C | COCCNC(=O)C1CCCN1S(=O)(=O)c1ccc(Cl)c(COc2cccc3ccc(C)nc23)c1Cl (stereo not drawn)
43 | 200 °C | CN(CC(=O)NC1(c2ccccc2Cl)C(=O)Nc2ccc(Cl)cc21)CC(=O)OC(C)(C)C (stereo not drawn)
44 | 191 to 193 °C | COC(=O)C(CC(C)C)NC(=O)C(CC(N)=O)NC(=O)OCc1ccccc1 (stereo not drawn) (Cbz-Asn-Leu-OMe; configuration not given here)
45 | 80 to 81 °C | COC(=O)c1ccc(O)c(C=O)c1
46 | 124 to 126 °C | CC1NC(=O)c2ccccc2O1 (stereo not drawn)

Row | melting point | Compound
47 | 163 to 164 °C | CC(C)(C)C(=O)C(Br)Cc1cccnc1 (stereo not drawn)
48 | 98 to 100 °C | Cc1nc(OC(C)C)c([N+](=O)[O-])c(N2CCN(c3ccc(F)cc3)CC2)n1
49 | 123 to 126 °C | CNc1ccc(Cl)cc1-c1cc2ccccc2[nH]1
50 | 173 to 174 °C | Cc1c(C(N)=O)c2ccccc2n2c(N3CCCC3)nc(-c3noc(C(C)C)n3)c12
51 | 210 °C | CNC(=O)c1cccc2cccc(NC(=O)c3cccs3)c12
52 | 64 to 65 °C | C#CCOc1cc(C=O)cc(Cl)c1OCC#C
53 | 106 to 108 °C | CC(C)(C)OC(=O)NCCNC(=O)c1ccc(Cl)cn1
54 | 224 to 226 °C | O=C(O)c1ccc(F)c2c1C=CCO2
55 | 112 to 114 °C | CC(C)C(=O)N[C@@H](CSC(=O)C(C)(C)C)C(=O)NCCSC(=O)c1ccccc1
56 | 58 to 68 °C | Cc1cc(-c2cccc(-c3ccc(C4(O)C5CCC4CN(Cc4ccccc4)C5)cc3)n2)c(C)[nH]1 (stereo not drawn)
57 | 207 to 208 °C | CNC(=O)Cc1c(-c2ccc(C)cc2)nn2cccnc12
58 | 86 to 89 °C | COc1ccccc1N1CCN(CC2(C)N=C(c3ccccc3)NC2=O)CC1 (stereo not drawn)
59 | 213 to 214 °C | CNc1nc(C)c(-c2ccnc(Nc3ccc(N4CCN(C(C)=O)CC4)cc3)n2)s1
60 | > 310 °C | COC(=O)C1CCN(c2ccc3nc4[nH]c(=O)[nH]c4cc3c2)CC1
61 | 100 to 101 °C | CCCCCSc1c[nH]nc1C1=CCCN(C)C1
62 | 146 to 148 °C | COCc1ncccc1CN(CCn1ccc2oc(C)cc2c1=O)Cc1ccc2c(c1)N(C)C(=O)C(C)(C)C(=O)N2C1CC1
63 | 310 to 321 °C | O=c1[nH]c2cc([N+](=O)[O-])c(S(=O)(=O)N(CCO)CCO)cc2[nH]c1=O
64 | 158 to 159 °C | COCCOc1ccc(CCC(=O)NS(N)(=O)=O)c(Oc2ncc(C(F)(F)F)cc2Cl)c1
65 | 127 to 129 °C | Cc1nc(C(=O)Nc2cccc(Cl)c2Cl)c(C)n1-c1ccccc1
66 | 150 °C | CN(C)C(=O)C1(N2CCCC2)CCNCC1
67 | 85 to 87 °C | COc1cc(OC)cc(N2CCN(CCC3CN(C)C(=O)O3)CC2)c1 (stereo not drawn)
68 | 151 to 152 °C | CS(=O)(=O)NC(=O)NCCCc1ccc2c(NC(=O)CC3CCCCC3)c(Cl)ccc2n1
69 | 136 to 138 °C | CC(=O)NC[C@H]1CN(c2ccc(N3CCC(O)(COS(C)(=O)=O)CC3)c(F)c2)C(=O)O1

Row | Compound | melting point
70 | CC(C)(C)CCCOC1CCC2C3C(=O)C=C4CC(O)CCC4(C)C3CCC12C (stereo not drawn) | 203 to 205 °C
71 | CCCCCCCCNP(N)(N)=O | 102 to 114 °C
72 | Brc1ccc2nc(NC3=NCCN3)[nH]c2c1 | 264 to 266 °C
73 | CN1CC=C(c2cn(-c3cccnc3)c3ccc([N+](=O)[O-])cc23)CC1 | 175 to 177 °C
